# Patent publication US12691112B2, “FGFR tyrosine kinase inhibitors for the treatment of urothelial carcinoma” (Janssen Pharmaceutica NV, priority 2019, dated 2026)
# Tests used:
# [1] = system: metastatic or surgically unresectable urothelial cancer harboring select FGFR genetic alterations; assay: Phase 2 study NCT02365597: overall survival (Kaplan-Meier); assay type: in vivo, human
# Procedure: The term “overall survival” is defined as the time from first dose to the date of death. Data for patients who are alive or have unknown status is censored at the last date on which the patient is known to be alive.
# Patients were contacted every 12 weeks for survival assessment.
# The study was designed to enroll 180 patients with specified FGFR alterations. Of these, ≥88 were required in the selected regimen. […] Responses were assessed by investigators and an independent radiological review committee. Progression-free survival and overall survival were estimated using Kaplan-Meier product limit method. Data from patients who were progression free and alive or with unknown status were censored at last tumor assessment. Efficacy end points were analysed at primary analysis cut-off.
# [2] = Excretion after single oral dose of radiolabeled erdafitinib; assay type: in vivo
# [3] = FGFR fusions (excluding mutations), 6 mg QD
# [4] = FGFR fusions (excluding mutations), 8 mg QD
# [5] = FGFR fusions (excluding mutations), 10 mg 7 on/7 off
# [6] = FGFR fusions (excluding mutations), Total
# [7] = FGFR mutations (excluding fusions), 6 mg QD
# [8] = FGFR mutations (excluding fusions), 8 mg QD
# [9] = FGFR mutations (excluding fusions), 10 mg 7 on/7 off
# [10] = FGFR mutations (excluding fusions), Total
# [11] = FGFR mutations and fusions, 6 mg QD
# [12] = FGFR mutations and fusions, 10 mg 7 on/7 off
# [13] = FGFR mutations and fusions, Total
structure (smiles),measurement,setting,value
"COc1cc(OC)cc(N(CCNC(C)C)c2ccc3ncc(-c4cnn(C)c4)nc3c2)c1 [erdafitinib, N-(3,5-dimethoxy-phenyl)-N′-(1-methylethyl)-N-[3-(1-methyl-1H-pyrazol-4-yl)quinoxalin-6-yl]ethane-1,2-diamine]",12-month overall survival rate (95% CI),[1]; [3],"0.46 (0.14, 0.73)"
same,18-month overall survival rate (95% CI),[1]; [3],"0.46 (0.14, 0.73)"
same,"Overall survival, Median (95% CI)",[1]; [3],"9.33 (0.46, NE) months"
same,"Overall survival, Q1",[1]; [3],7.92 months
same,"Overall survival, Q3",[1]; [3],18.96 months
same,6-month overall survival rate (95% CI),[1]; [4],"0.77 (0.54, 0.90)"
same,12-month overall survival rate (95% CI),[1]; [4],"0.46 (0.24, 0.66)"
same,"Overall survival, Median (95% CI)",[1]; [4],"10.32 (6.05, NE) months"
same,"Overall survival, Q1",[1]; [4],6.05 months
same,"Overall survival, Q3",[1]; [4],14.03 months
same,6-month overall survival rate (95% CI),[1]; [5],"1.00 (1.00, 1.00)"
same,12-month overall survival rate (95% CI),[1]; [5],"0.50 (0.01, 0.91)"
same,18-month overall survival rate (95% CI),[1]; [5],"0 (NE, NE)"
same,24-month overall survival rate (95% CI),[1]; [5],"0 (NE, NE)"
same,"Overall survival, Median (95% CI)",[1]; [5],"10.37 (7.72, 13.01) months"
same,"Overall survival, Q1",[1]; [5],7.72 months
same,"Overall survival, Q3",[1]; [5],13.01 months
same,6-month overall survival rate (95% CI),[1]; [6],"0.80 (0.62, 0.90)"
same,12-month overall survival rate (95% CI),[1]; [6],"0.46 (0.28, 0.62)"
same,18-month overall survival rate (95% CI),[1]; [6],"0.31 (0.12, 0.52)"
same,"Overall survival, Median (95% CI)",[1]; [6],"9.33 (7.72, 18.96) months"
same,"Overall survival, Q1",[1]; [6],6.97 months
same,"Overall survival, Q3",[1]; [6],18.96 months
same,6-month overall survival rate (95% CI),[1]; [7],"0.68 (0.54, 0.79)"
same,12-month overall survival rate (95% CI),[1]; [7],"0.30 (0.18, 0.43)"
same,18-month overall survival rate (95% CI),[1]; [7],"0.21 (0.11, 0.33)"
same,"Overall survival, Median (95% CI)",[1]; [7],"8.31 (6.41, 9.63) months"
same,"Overall survival, Q1",[1]; [7],5.13 months
same,"Overall survival, Q3",[1]; [7],14.82 months
same,6-month overall survival rate (95% CI),[1]; [8],"0.74 (0.61, 0.83)"
same,12-month overall survival rate (95% CI),[1]; [8],"0.54 (0.38, 0.68)"
same,"Overall survival, Median (95% CI)",[1]; [8],"12.02 (8.64, NE) months"
same,"Overall survival, Q1",[1]; [8],"5.98, NE months"
same,6-month overall survival rate (95% CI),[1]; [9],"0.70 (0.47, 0.84)"
same,12-month overall survival rate (95% CI),[1]; [9],"0.31 (0.14, 0.50)"
same,18-month overall survival rate (95% CI),[1]; [9],"0.26 (0.11, 0.45)"
same,24-month overall survival rate (95% CI),[1]; [9],"0.22 (0.08, 0.40)"
same,"Overall survival, Median (95% CI)",[1]; [9],"7.39 (5.78, 10.71) months"
same,"Overall survival, Q1",[1]; [9],5.55 months
same,"Overall survival, Q3",[1]; [9],18.76 months
same,6-month overall survival rate (95% CI),[1]; [10],"0.71 (0.63, 0.78)"
same,12-month overall survival rate (95% CI),[1]; [10],"0.39 (0.30, 0.48)"
same,18-month overall survival rate (95% CI),[1]; [10],"0.29 (0.20, 0.39)"
same,24-month overall survival rate (95% CI),[1]; [10],"0.24 (0.15, 0.35)"
same,"Overall survival, Median (95% CI)",[1]; [10],"9.10 (7.46, 11.86) months"
same,"Overall survival, Q1",[1]; [10],5.49 months
same,"Overall survival, Q3",[1]; [10],18.76 months
same,6-month overall survival rate (95% CI),[1]; [11],"0.75 (0.13, 0.96)"
same,12-month overall survival rate (95% CI),[1]; [11],"0.75 (0.13, 0.96)"
same,18-month overall survival rate (95% CI),[1]; [11],"0.38 (0.01, 0.81)"
same,"Overall survival, Median (95% CI)",[1]; [11],"12.65 (0.39, NE) months"
same,"Overall survival, Q1",[1]; [11],"6.52, NE months"
same,6-month overall survival rate (95% CI),[1]; [12],"0.67 (0.05, 0.95)"
same,12-month overall survival rate (95% CI),[1]; [12],"0 (NE, NE)"
same,18-month overall survival rate (95% CI),[1]; [12],"0 (NE, NE)"
same,24-month overall survival rate (95% CI),[1]; [12],"0 (NE, NE)"
same,"Overall survival, Median (95% CI)",[1]; [12],"6.21 (3.98, 9.10) months"
same,"Overall survival, Q1",[1]; [12],3.98 months
same,"Overall survival, Q3",[1]; [12],9.10 months
same,6-month overall survival rate (95% CI),[1]; [13],"0.71 (0.26, 0.92)"
same,12-month overall survival rate (95% CI),[1]; [13],"0.43 (0.10, 0.73)"
same,18-month overall survival rate (95% CI),[1]; [13],"0.21 (0.01, 0.59)"
same,"Overall survival, Median (95% CI)",[1]; [13],"9.10 (0.39, NE) months"
same,"Overall survival, Q1",[1]; [13],3.98 months
same,"Overall survival, Q3",[1]; [13],12.65 months
same,Median overall survival (95% CI),"[1]; Regimen 1, 10 mg intermittent",7.5 (6.0 to 10.7) months
same,overall survival rate at 12 months,"[1]; Regimen 1, 10 mg intermittent",31%
same,Median overall survival (95% CI),"[1]; Regimen 2, 6 mg continuous",8.6 (6.5 to 9.7) months
same,overall survival rate at 12 months,"[1]; Regimen 2, 6 mg continuous",33%
same,Survival rate at 12 months,"[1]; Regimen 3, 8 mg continuous",55%
same,median overall survival,"[1]; Regimen 3, 8 mg continuous",13.8 months
same,dose recovered in feces,[2],approximately 69%
same,dose recovered in feces as unchanged,[2],19%
same,dose recovered in urine,[2],19%
same,dose recovered in urine as unchanged,[2],13%
